Assay results as given in article PMC7496275, “Pentathiepins: A Novel Class of Glutathione Peroxidase 1 Inhibitors that Induce Oxidative Stress, Loss of Mitochondrial Membrane Potential and Apoptosis in Human Cancer Cells” (Chemmedchem, 2020).

Experiments:
HL-60 cells [1] = test: Detection of reactive oxygen species (DCF-DA flow cytometry); assay type: cell-based, human; conditions: 25 μM, 10 min
Source text: (§1) It has long been observed that pentathiepins are able to produce reactive oxygen species outside of cells.16, 17, 20 Whether ROS production can also occur in living cells has not yet been reported. To determine if 4 can produce ROS in HL‐60 and Gumbus cells, the cytosolic ROS detector 2′,7′‐dichlorofluorescin diacetate (DCF−DA) was used. […] Thus, pentathiepins appear capable of generating ROS inside living cells within a very short period of time.
(§2) Detection of reactive oxygen species: To detect cellular reactive oxygen species (ROS) a flow cytometry technique based on the use of the ROS‐sensor 2′,7′‐dichlorofluorescin diacetate (DCF‐DA) was used.38 Briefly, cells were collected in reaction tubes and washed with 500 μL phosphate buffered saline (PBS). The cell pellets were resuspended in 1 mL PBS and stained with 2 μL DCF‐DA stock solution (10 mM in DMSO) for 30 min at 37 °C. Then cells were washed with 500 μL PBS and suspended in 1 mL PBS followed by addition of […] 4 ([…]) to a final concentration of 25 μM. After an incubation period of 10 min cells were washed with PBS, resuspended in 500 μL PBS and analyzed by flow cytometry with a MACSQuant Analyzer 10 (Miltenyi Biotec, Germany) set at λ Ex/Em=488/530 nm.

Gumbus cells [2] = test: as above; assay type: cell-based, human; conditions: 25 μM, 10 min
Source text: as §1, §2

SISO cells [3] = test: Fluorescence microscopy for lipid peroxidation (BODIPY 581/591); assay type: cell-based, human; conditions: 25 μM, 24 h
Protocol: In another set of experiments, LPO was visualized by fluorescence microscopy with a dye for lipid peroxides, BODIPY 581/591. […] Together, our results point to apoptosis and not ferroptosis as the mechanism of cell death induced by 4.
Fluorescence microscopy for the detection of lipid peroxidation: SISO cells (250 000 cells) were seeded out in 6‐well plates with an inserted coverslip. Cells were allow to attach for 24 h and then exposed to 25 μM 4 or 100 μM tert‐butyl‐hydroperoxide as a positive control. After 24 h coverslips were washed with PBS and stained with 1 μM BODIPY 581/591 in culture medium for 30 min. Cells on the coverslips were then mounted and examined with a Leica DMi8 fluorescence microscope at λ ex/em=460–500/512–542 nm for the oxidized BODIPY 581/591 and λ ex/em=540–581/592–668 for the reduced form.

HAP-1 cells = test: MTT cell viability assay; assay type: cell-based, human
Protocol: (§3) We determined IC50 values for the viability reduction in a low micro molar range (Figure 6B).
(§4) MTT cell viability assay: For the detection of the inhibition of the viability of cells by the pentathiepins, the MTT‐viability assay was used.37 Briefly, 10 000 and 20 000 cells for the suspension cell lines HL‐60 and Gumbus, respectively, were seeded out in 50 μL medium per well and immediately exposed to the compounds. For the adherent cell lines SISO and HAP‐1, 3000 and 5000 cells, respectively, were seeded out in 96‐well plates and allowed to attach for 24 h. Cells were exposed to nine serial dilutions of compound, added to the medium from 1000‐fold concentrated stock solution in DMF. For the controls, cells were exposed to 0.1 % DMF alone. After 48 h incubation, 20 μL of the MTT stock solution (2.5 mg/mL in PBS) were added to each well to give a final concentration of 1.0 mM. The formazan crystals that formed after 4 h at 37 °C were dissolved by sonification after adding 100 μL of 0.04 M HCl in isopropanol for the suspension cell lines, or with 50 μL DMSO after aspiration of the medium for the adherent cell lines. Optical density was measured with a SpectraMax Plus 383 microtiter plate read at λ=570 nm (Molecular Devices, USA). Data of related absorption to control cells were imported into GraphPad Prism 6.0 software and IC50 values were generated by determining the inflection point of the sigmoidal log concentration‐viability inhibition curves.

SISO cells [4] = test: MTT cell viability assay; assay type: cell-based, human; conditions: 48 h
Protocol: as §3, §4

Gumbus cells [5] = test: MTT cell viability assay; assay type: cell-based, human; conditions: 48 h
Protocol: as §3, §4

[6] = Stability in GPx assay buffer with GSH by RP-HPLC; assay type: physicochemical
Protocol: (§5) It has been reported that pentathiepins are instable in the presence of thiols such as GSH.20 Thus, the stability of a representative pentathiepin, 4, in the presence of GSH was studied first by APCI‐MS. Incubations of 4 in the presence of 10 mM GSH, a biologically relevant concentration, were monitored at 23 °C for a period up to 1 h. […] Next, the stability of 4 was studied by RP‐HPLC in the same buffer and with the same GSH concentration (0.25 mM) used in the GPx assay (see below). Over the course of a 70 min incubation a nearly 30 % loss of the pentathiepin (Figure S32) was observed. However, since the GPx assay is only run for 20 min, the direct reaction between 4 and GSH would only account for a ca. 10 % loss of pentathiepin under assay conditions.
Melting points were determined with a Büchi Melting Point M‐565 or a Büchi 545 (Büchi, Flawil, CH), temperatures are uncorrected. ^1H NMR and ^13C NMR spectra were recorded either with a Bruker Avance II‐300 or an Avance II Ultrashield 400 MHz instrument. Chemical shifts δ are given in ppm and the solvent residual peak (CDCl3: ^1H, δ=7.27; ^13C, δ=77.0 and [D6]DMSO: ^1H, δ=2.50; ^13C, δ=40) was used as an internal standard with the quinoxaline derivatives while TMS was used for the indole derivatives. APCI‐MS (m/z) spectra were recorded on an Advion MS. […]

HL-60 cells [7] = test: Cell morphology after incubation; assay type: cell-based, human; conditions: 25 μM, 6 h
[8] = Stability in presence of GSH by APCI-MS; assay type: physicochemical; conditions: 10 mM GSH, 23 °C, up to 1 h
Protocol: as §5

[9] = Homo sapiens, MTT, read-out: IC50 for viability reduction

loss of the pentathiepin ([6]; 0.25 mM GSH in GPx assay buffer, 70 min, 23 °C, RP-HPLC): ~30% | loss of pentathiepin under assay conditions ([6]; 0.25 mM GSH, 20 min GPx assay duration): ca. 10% | stability in presence of GSH (mass spectrum) [8]: No changes in the mass spectrum
Structure (SMILES): CCOc1c2c(c3cnc4cc(C)c(C)cc4n13)SSSSS2 [Compound 4]
ROS formation (HL-60 cells [1]): rapid but not as intense as with the Gumbus line | ROS formation (Gumbus cells [2]): significant burst of ROS | lipid peroxidation (LPO) (SISO cells [3]): no indication for LPO | cell viability at highest tested concentration (HAP-1 cells; 48 h): complete loss of cell viability | IC50 (HAP-1 cells; Homo sapiens, HAP1, 48 h, MTT, read-out: IC50 for viability reduction): 2200 to 3100 nM | cell viability at highest tested concentration (SISO cells [4]): complete loss of cell viability | IC50 (SISO cells [4]; [9]): 2200 to 3100 nM | cell viability at highest tested concentration (Gumbus cells [5]): complete loss of cell viability | IC50 (Gumbus cells [5]; [9]): 2200 to 3100 nM | change in morphology (HL-60 cells [7]): membrane blebbing
